Results on 29 compounds are retold here after patent publication US12187728B2 (Raze Therapeutics, Inc., priority 2015, dated 2025).

In the assay the target is T1, Human MTHFD2 (Homo sapiens, UniProt P13995).
T1 construct: residues 36-350 in Uniport ID P13995; His6 (N); made in house; host or cells: E. coli
T1 sequence (P13995 36-350): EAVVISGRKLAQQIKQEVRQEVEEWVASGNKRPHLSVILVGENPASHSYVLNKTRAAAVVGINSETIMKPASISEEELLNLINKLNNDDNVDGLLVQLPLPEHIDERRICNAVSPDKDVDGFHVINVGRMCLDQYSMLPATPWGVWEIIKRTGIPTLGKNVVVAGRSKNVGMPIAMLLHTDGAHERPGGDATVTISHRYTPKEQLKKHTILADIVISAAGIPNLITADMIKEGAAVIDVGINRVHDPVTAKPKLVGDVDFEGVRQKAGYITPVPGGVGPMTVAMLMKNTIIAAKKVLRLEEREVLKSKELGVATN
Description: MTHFD2 Activity Assay (dehydrogenase activity, diaphorase/resazurin coupled fluorescence). The format is biochemical. Particulars: inhibitory activity (IC50 and/or binding constant); 0.2 nM MTHFD2, 11 concentrations. The method, boiled down: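 His6-tagged MTHFD2 (res. 36-350), E. coli-expressed, at 0.2 nM preincubated with compound 15 min in Hepes pH 8.0/MgCl2/KH2PO4 buffer; 70 μM CH2-THF, 1 mM NAD+ added with resazurin/diaphorase, 30 min, EDTA stop. Resorufin fluorescence (ex 525/em 598); IC50 from 11-point 4-parameter fit.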
A general note: Alamar Blue is a resazurin reagent that responds to reducing activity.
As usually defined, the IC50 is the concentration that inhibits the measured activity by half. A high value points to lower potency. Consider `Cn1c(N[C@H]2CCCOC2)nc2c1c(=O)n(Cc1ccc(Cl)c(Cl)c1)c(=O)n2C` [Example 46, 1-[(3,4-dichlorophenyl)methyl]-3,7-dimethyl-8-{[(3S)-oxan-3-yl]amino}-2,3,6,7-tetrahydro-1H-purine-2,6-dione], for which the IC50 fell in the range of 0.01 to 1 µM.
Consider `Cn1c(Nc2ccncc2)nc2c1c(=O)n(Cc1cc3c(F)cccc3[nH]1)c(=O)n2C` [Example 310, 1-((4-fluoro-1H-indol-2-yl)methyl)-3,7-dimethyl-8-(pyridin-4-ylamino)-1H-purine-2,6(3H,7H)-dione], for which the concentration for half-maximal inhibition (IC50) lay in the range of 0.01 to 1 µM.
`Cn1c(CCO)nc2c1c(=O)n(Cc1cc3ccccc3[nH]1)c(=O)n2C` [Example 212, 1-((1H-indol-2-yl)methyl)-8-(2-hydroxyethyl)-3,7-dimethyl-1H-purine-2,6(3H,7H)-dione] had a half-inhibitory concentration (IC50) of 1 to 5 µM.
`Cn1c(N[C@@H]2CC[C@H](CO)C2)nc2c1c(=O)n(Cc1ccc(Cl)c(Cl)c1)c(=O)n2C` [Example 276, 1-(3,4-dichlorobenzyl)-8-((1R,3S)-3-(hydroxymethyl)cyclopentylamino)-3,7-dimethyl-1H-purine-2,6(3H,7H)-dione]: the IC50 lay within 0.01 to 1 µM.
To `Cc1ccc2[nH]c(Cn3c(=O)c4c(nc(CCO)n4C)n(C)c3=O)cc2c1` [Example 210, 8-(2-hydroxyethyl)-3,7-dimethyl-1-((5-methyl-1H-indol-2-yl)methyl)-1H-purine-2,6(3H,7H)-dione] belongs 1 to 5 µM.
Regarding `Cn1c(NC2CCCC(C(=O)O)C2)nc2c1c(=O)n(Cc1ccc3cc[nH]c3c1)c(=O)n2C` (centres unmarked) [Example 260, 3-(1-((1H-indol-6-yl)methyl)-3,7-dimethyl-2,6-dioxo-2,3,6,7-tetrahydro-1H-purin-8-ylamino)cyclohexanecarboxylic acid], the IC50 lay within 0.01 to 1 µM.
Compound `Cc1ccc2[nH]c(Cn3c(=O)c4c(ncn4C)n(C)c3=O)cc2c1` [Example 236, 3,7-dimethyl-1-((5-methyl-1H-indol-2-yl)methyl)-1H-purine-2,6(3H,7H)-dione] returned an IC50 of 1 to 5 µM.
On to `Cn1c(NC(CO)CO)nc2c1c(=O)n(Cc1ccc(Cl)c(Cl)c1)c(=O)n2C` [Example 53, 1-[(3,4-dichlorophenyl)methyl]-8-[(1,3-dihydroxypropan-2-yl)amino]-3,7-dimethyl-2,3,6,7-tetrahydro-1H-purine-2,6-dione], for which the IC50 lay within 0.01 to 1 µM.
In the case of `C[C@H](O)CNc1nc2c(c(=O)n(Cc3ccc(Cl)cc3)c(=O)n2C)n1C` [Example 18, 1-[(4-chlorophenyl)methyl]-8-{[(2S)-2-hydroxypropyl]amino}-3,7-dimethyl-2,3,6,7-tetrahydro-1H-purine-2,6-dione], the IC50 fell in the range of 5 to 10 µM.
Turning to `Cn1c(C(N)=O)nc2c1c(=O)n(Cc1ccc(Cl)c(Cl)c1)c(=O)n2C` [Example 244, 1-(3,4-dichlorobenzyl)-3,7-dimethyl-2,6-dioxo-2,3,6,7-tetrahydro-1H-purine-8-carboxamide], the IC50 is 1 to 5 µM.
To `Cn1c(N[C@H]2C[C@H](CO)C2)nc2c1c(=O)n(Cc1cc3c(Cl)cccc3[nH]1)c(=O)n2C` [Example 305, 1-((4-chloro-1H-indol-2-yl)methyl)-8-((1R,3R)-3-(hydroxymethyl)cyclobutylamino)-3,7-dimethyl-1H-purine-2,6(3H,7H)-dione] belongs 0.01 to 1 µM; to `Cn1c(Nc2ccnc(C3CC(CO)C3)c2)nc2c1c(=O)n(Cc1ccc(Cl)c(Cl)c1)c(=O)n2C` (centres unmarked) [Example 320, 1-(3,4-dichlorobenzyl)-8-(2-(3-(hydroxymethyl)cyclobutyl)pyridin-4-ylamino)-3,7-dimethyl-1H-purine-2,6(3H,7H)-dione], 0.01 to 1 µM; to `CC(=O)NS(=O)(=O)c1ccc(Nc2nc3c(c(=O)n(Cc4cc5c(Cl)cccc5[nH]4)c(=O)n3C)n2C)cc1` [Example 390, N-((4-((1-((4-chloro-1H-indol-2-yl)methyl)-3,7-dimethyl-2,6-dioxo-2,3,6,7-tetrahydro-1H-purin-8-yl)amino)phenyl)sulfonyl)acetamide], 0.01 to 1 µM.
Take `CC(c1nc2c(c(=O)n(Cc3cc4c(Cl)cccc4[nH]3)c(=O)n2C)n1C)N(C)C` (centres unmarked) [Example 457, 1-[(4-chloro-1H-indol-2-yl)methyl]-8-[1-(dimethylamino)ethyl]-3,7-dimethyl-purine-2,6-dione]: the IC50 was in the range of 0.01 to 1 µM.
Under `Cn1c(Nc2cccc([C@@H]3C[C@H]3C(N)=O)n2)nc2c1c(=O)n(Cc1cc3c(Cl)cccc3[nH]1)c(=O)n2C` (racemic) [Example 364, (±)-trans-2-(6-((1-((4-chloro-1H-indol-2-yl)methyl)-3,7-dimethyl-2,6-dioxo-2,3,6,7-tetrahydro-1H-purin-8-yl)amino)pyridin-2-yl)cyclopropanecarboxamide] stands 0.01 to 1 µM; under `Cn1c(NC2CCCC(CO)C2)nc2c1c(=O)n(Cc1ccc(Cl)c(Cl)c1)c(=O)n2C` (racemic) [Example 254, (±)-1-(3,4-dichlorobenzyl)-8-(3-(hydroxymethyl)cyclohexylamino)-3,7-dimethyl-1H-purine-2,6(3H,7H)-dione], 0.01 to 1 µM.
Turning to `Cn1c(N[C@H]2CC[C@@H](O)C2)nc2c1c(=O)n(Cc1ccc(Cl)c(Cl)c1)c(=O)n2C` (single isomer, unassigned) [Example 43, 1-(3,4-dichlorobenzyl)-8-((1S,3R)-3-hydroxycyclopentylamino)-3,7-dimethyl-1H-purine-2,6(3H,7H)-dione or 1-(3,4-dichlorobenzyl)-8-((1R,3S)-3-hydroxycyclopentylamino)-3,7-dimethyl-1H-purine-2,6(3H,7H)-dione], the IC50 fell in the range of 0.01 to 1 µM.
`Cn1c(Nc2cccc(CC(=O)O)c2)nc2c1c(=O)n(Cc1ccc(Cl)c(Cl)c1)c(=O)n2C` [Example 287, 2-(3-((1-(3,4-dichlorobenzyl)-3,7-dimethyl-2,6-dioxo-2,3,6,7-tetrahydro-1H-purin-8-yl)amino)phenyl)acetic acid] displayed a 50% inhibitory concentration (IC50) of 0.01 to 1 µM.
In turn, `Cn1c(Nc2ccncc2)nc2c1c(=O)n(Cc1cc3c(C4CC4)cccc3[nH]1)c(=O)n2C` [Example 401, 1-((4-cyclopropyl-1H-indol-2-yl)methyl)-3,7-dimethyl-8-(pyridin-4-ylamino)-1H-purine-2,6(3H,7H)-dione] registered an IC50 of 0.01 to 1 µM.
`Cn1c(Nc2ccncn2)nc2c1c(=O)n(Cc1cc3c(Cl)cccc3[nH]1)c(=O)n2C` [Example 362, 1-((4-chloro-1H-indol-2-yl)methyl)-3,7-dimethyl-8-(pyrimidin-4-ylamino)-3,7-dihydro-1H-purine-2,6-dione] returned an IC50 of 0.01 to 1 µM.
For `Cn1c(NCc2cccnc2)nc2c1c(=O)n(Cc1ccc(Cl)c(Cl)c1)c(=O)n2C` [Example 117, 1-(3,4-dichlorobenzyl)-3,7-dimethyl-8-(pyridin-3-ylmethylamino)-1H-purine-2,6(3H,7H)-dione], the IC50 is 1 to 5 µM.
Consider `Cn1c(Nc2cccc(CCC(=O)O)n2)nc2c1c(=O)n(Cc1ccc(Cl)c(Cl)c1)c(=O)n2C` [Example 282, 3-(6-(1-(3,4-dichlorobenzyl)-3,7-dimethyl-2,6-dioxo-2,3,6,7-tetrahydro-1H-purin-8-ylamino)pyridin-2-yl)propanoic acid], for which the IC50 was in the range of 0.01 to 1 µM.
The compound `CCC(N)c1nc2c(c(=O)n(Cc3cc4c(Cl)cccc4[nH]3)c(=O)n2C)n1C` (centres unmarked) [Example 434, 8-(1-aminopropyl)-1-[(4-chloro-1H-indol-2-yl)methyl]-3,7-dimethyl-purine-2,6-dione] registered an IC50 of 0.01 to 1 µM.
With `Cn1c(Nc2ccnc(CCC(=O)O)c2)nc2c1c(=O)n(Cc1ccc(Cl)c(Cl)c1)c(=O)n2C` [Example 277, 3-(4-(1-(3,4-dichlorobenzyl)-3,7-dimethyl-2,6-dioxo-2,3,6,7-tetrahydro-1H-purin-8-ylamino)pyridin-2-yl)propanoic acid], the IC50 lay in the range of 0.01 to 1 µM.
Under `Cn1c(Nc2ccncn2)nc2c1c(=O)n(Cc1cc3ccccc3[nH]1)c(=O)n2C` [Example 216, 1-((1H-indol-2-yl)methyl)-3,7-dimethyl-8-(pyrimidin-4-ylamino)-1H-purine-2,6(3H,7H)-dione] stands 0.01 to 1 µM.
Turning to `Cn1c(Cn2c(=O)c3c(nc(N4CCC(O)CC4)n3C)n(C)c2=O)cc2cc(Cl)ccc21` [Example 196, 1-((5-chloro-1-methyl-1H-indol-2-yl)methyl)-8-(4-hydroxypiperidin-1-yl)-3,7-dimethyl-1H-purine-2,6(3H,7H)-dione], the IC50 is 0.01 to 1 µM.
In turn, `Cn1c(C(N)c2ccncc2)nc2c1c(=O)n(Cc1cc3c(Cl)cccc3[nH]1)c(=O)n2C` (centres unmarked) [Example 461, 8-(amino(pyridin-4-yl)methyl)-1-((4-chloro-1H-indol-2-yl)methyl)-3,7-dimethyl-1H-purine-2,6(3H,7H)-dione] yielded an IC50 of 0.01 to 1 µM.
`Cn1c(/C(=N/O)c2ccncc2)nc2c1c(=O)n(Cc1cc3c(Cl)cccc3[nH]1)c(=O)n2C` [Example 468, (E)-1-((4-chloro-1H-indol-2-yl)methyl)-8-((hydroxyimino)(pyridin-4-yl)methyl)-3,7-dimethyl-1H-purine-2,6(3H,7H)-dione or (Z)-1-((4-chloro-1H-indol-2-yl)methyl)-8-((hydroxyimino)(pyridin-4-yl)methyl)-3,7-dimethyl-1H-purine-2,6(3H,7H)-dione] displayed an IC50 of 0.01 to 1 µM.
As for `CCc1cccc2cc(Cn3c(=O)c4c(nc(C(C)N)n4C)n(C)c3=O)ccc12` (centres unmarked) [Example 463, 8-(1-aminoethyl)-1-((5-ethylnaphthalen-2-yl)methyl)-3,7-dimethyl-1H-purine-2,6(3H,7H)-dione], the half-maximal inhibitory concentration (IC50) is 0.01 to 1 µM.
